Assay results published in ChEMBL document CHEMBL1201862, “PubChem BioAssay data set” (2004).
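Results reflect a 48-hour exposure of cells in 96-well plates to compound at five concentrations. GI50 = concentration required for 50% inhibition of growth.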 Activity calls are given as the source filed them. No stated cut-off is given here; in the data, active = GI50 up to about 1.1 µM and inactive = higher.

Experiments:
Assay in all cases: NCI tumour cell line growth inhibition, 48 h
COLO 205 = system: COLO 205
NCI-H460 = system: NCI-H460
TK-10 = system: TK-10
HT-29 = system: HT-29
HCC 2998 = system: HCC 2998
SK-MEL-2 = system: SK-MEL-2
SNB-75 = system: SNB-75
SF-268 = system: SF-268
SW-620 = system: SW-620
OVCAR-8 = system: OVCAR-8
786-0 = system: 786-0
UACC-257 = system: UACC-257
MDA-MB-231 = system: MDA-MB-231
OVCAR-4 = system: OVCAR-4
PC-3 = system: PC-3
HOP-62 = system: HOP-62
IGROV-1 = system: IGROV-1
OVCAR-3 = system: OVCAR-3
CCRF-CEM = system: CCRF-CEM
OVCAR-5 = system: OVCAR-5
NCI-H23 = system: NCI-H23
MOLT-4 = system: MOLT-4
CAKI-1 = system: CAKI-1
BT-549 = system: BT-549
Hs-578T = system: Hs-578T
SF-295 = system: SF-295
T47D = system: T47D
SK-OV-3 = system: SK-OV-3
SK-MEL-5 = system: SK-MEL-5
EKVX = system: EKVX
MDA-MB-435 = system: MDA-MB-435
Malme-3M = system: Malme-3M
K562 = system: K562
HCT-15 = system: HCT-15
UO-31 = system: UO-31
LOX IMVI = system: LOX IMVI
MCF7 = system: MCF7
SN12C = system: SN12C
HCT-116 = system: HCT-116
NCI-H522 = system: NCI-H522
DU-145 = system: DU-145
SR = system: SR
ACHN = system: ACHN
RXF 393 = system: RXF 393
MDA-N = system: MDA-N
KM12 = system: KM12
NCI/ADR-RES = system: NCI/ADR-RES
SF-539 = system: SF-539
M14 = system: M14
UACC-62 = system: UACC-62
A549 = system: A549
HL-60 = system: HL-60
SNB-19 = system: SNB-19
U-251 = system: U-251
NCI-H226 = system: NCI-H226
A498 = system: A498
RPMI-8226 = system: RPMI-8226
SK-MEL-28 = system: SK-MEL-28

For `CC(=O)n1nc(-c2ccc3ccccc3c2)nc1C`, the GI50 (COLO 205) was > 100 µM (inactive), the GI50 (NCI-H460) was 95.9 µM (inactive) and the GI50 (TK-10) was > 100 µM (inactive). For the same compound, the GI50 (HT-29) was > 100 µM (inactive), the GI50 (HCC 2998) was > 100 µM (inactive) and the GI50 (SK-MEL-2) was > 100 µM (inactive). For the same compound, the GI50 (SNB-75) was 70.3 µM (inactive), the GI50 (SF-268) was > 100 µM (inactive) and the GI50 (SW-620) was 32.8 µM (inactive). The GI50 (OVCAR-8) was > 100 µM (inactive), the GI50 (786-0) was > 100 µM (inactive) and the GI50 (UACC-257) was 83.9 µM (inactive). The GI50 (MDA-MB-231) was > 100 µM (inactive), the GI50 (OVCAR-4) was 91 µM (inactive) and the GI50 (PC-3) was 62.2 µM (inactive). The GI50 (HOP-62) was 39.5 µM (inactive), the GI50 (IGROV-1) was > 100 µM (inactive) and the GI50 (OVCAR-3) was > 100 µM (inactive). The GI50 (CCRF-CEM) was 83.8 µM (inactive), the GI50 (OVCAR-5) was > 100 µM (inactive) and the GI50 (NCI-H23) was > 10 µM (inactive). For the same compound, the GI50 (MOLT-4) was 56.8 µM (inactive), the GI50 (CAKI-1) was 53.7 µM (inactive) and the GI50 (BT-549) was 48.6 µM (inactive). The GI50 (Hs-578T) was 39.4 µM (inactive), the GI50 (SF-295) was 52.8 µM (inactive) and the GI50 (T47D) was 52.4 µM (inactive). For the same compound, the GI50 (SK-OV-3) was > 100 µM (inactive), the GI50 (SK-MEL-5) was 36.1 µM (inactive) and the GI50 (EKVX) was 63 µM (inactive). For the same compound, the GI50 (MDA-MB-435) was 33.7 µM (inactive), the GI50 (Malme-3M) was > 100 µM (inactive) and the GI50 (K562) was 90.8 µM (inactive). For the same compound, the GI50 (HCT-15) was 35.6 µM, the GI50 (UO-31) was 39.4 µM (inactive) and the GI50 (LOX IMVI) was 57.3 µM (inactive). The GI50 (MCF7) was > 100 µM (inactive), the GI50 (SN12C) was > 100 µM (inactive) and the GI50 (HCT-116) was 67.3 µM (inactive). The GI50 (NCI-H522) was > 100 µM (inactive), the GI50 (DU-145) was 94.6 µM (inactive) and the GI50 (SR) was > 100 µM (inactive). For the same compound, the GI50 (ACHN) was 73.1 µM (inactive), the GI50 (RXF 393) was > 100 µM (inactive) and the GI50 (MDA-N) was 70.8 µM (inactive). For the same compound, the GI50 (KM12) was 23.9 µM (inactive), the GI50 (NCI/ADR-RES) was > 100 µM (inactive) and the GI50 (SF-539) was > 100 µM (inactive). For the same compound, the GI50 (M14) was > 100 µM (inactive), the GI50 (UACC-62) was 89.9 µM (inactive) and the GI50 (A549) was 81.1 µM (inactive). For the same compound, the GI50 (HL-60) was 46 µM (inactive).

With `CCn1cc2c(=O)n3ncn(-c4ccc(Br)cc4)c3nc2n1` the GI50 (COLO 205) was > 100 µM (inactive), the GI50 (TK-10) was 78.2 µM (inactive) and the GI50 (HT-29) was > 100 µM (inactive). For the same compound, the GI50 (HCC 2998) was > 100 µM (inactive), the GI50 (SK-MEL-2) was > 100 µM (inactive) and the GI50 (SNB-75) was 21 µM (inactive). The GI50 (SF-268) was > 100 µM (inactive), the GI50 (SW-620) was > 100 µM (inactive) and the GI50 (OVCAR-8) was 78.9 µM (inactive). The GI50 (786-0) was 63.2 µM (inactive), the GI50 (UACC-257) was > 100 µM (inactive) and the GI50 (MDA-MB-231) was 40.6 µM (inactive). For the same compound, the GI50 (OVCAR-4) was > 100 µM (inactive), the GI50 (PC-3) was > 100 µM (inactive) and the GI50 (HOP-62) was 38.5 µM (inactive). The GI50 (IGROV-1) was 29.6 µM (inactive), the GI50 (OVCAR-3) was > 100 µM (inactive) and the GI50 (CCRF-CEM) was > 100 µM (inactive). The GI50 (OVCAR-5) was > 100 µM (inactive), the GI50 (NCI-H23) was > 100 µM (inactive) and the GI50 (MOLT-4) was > 100 µM (inactive). For the same compound, the GI50 (CAKI-1) was 0.942 µM (active), the GI50 (BT-549) was > 100 µM (inactive) and the GI50 (Hs-578T) was 29.9 µM (inactive). The GI50 (SF-295) was > 100 µM (inactive), the GI50 (T47D) was > 100 µM (inactive) and the GI50 (SK-OV-3) was > 100 µM (inactive). For the same compound, the GI50 (SK-MEL-5) was > 100 µM (inactive), the GI50 (EKVX) was > 100 µM (inactive) and the GI50 (MDA-MB-435) was > 100 µM (inactive). For the same compound, the GI50 (SNB-19) was 49.9 µM (inactive), the GI50 (Malme-3M) was > 100 µM (inactive) and the GI50 (K562) was > 100 µM (inactive). For the same compound, the GI50 (U-251) was 58.1 µM (inactive), the GI50 (HCT-15) was 93.8 µM and the GI50 (UO-31) was > 100 µM (inactive). For the same compound, the GI50 (MCF7) was > 100 µM (inactive), the GI50 (SN12C) was > 100 µM (inactive) and the GI50 (NCI-H226) was > 100 µM (inactive). The GI50 (HCT-116) was > 100 µM (inactive), the GI50 (NCI-H522) was > 100 µM (inactive) and the GI50 (A498) was > 100 µM (inactive). For the same compound, the GI50 (DU-145) was > 100 µM (inactive), the GI50 (RPMI-8226) was 40.3 µM (inactive) and the GI50 (SR) was > 100 µM (inactive). The GI50 (ACHN) was > 100 µM (inactive), the GI50 (SK-MEL-28) was > 100 µM (inactive) and the GI50 (RXF 393) was > 100 µM (inactive). The GI50 (MDA-N) was > 100 µM (inactive), the GI50 (KM12) was > 100 µM (inactive) and the GI50 (NCI/ADR-RES) was > 100 µM (inactive). The GI50 (M14) was > 100 µM (inactive), the GI50 (UACC-62) was > 100 µM (inactive) and the GI50 (A549) was > 100 µM (inactive). The GI50 (HL-60) was > 100 µM (inactive).

In the case of `O=C(O)c1ccc(/N=C(\C(=N\c2ccc(C(=O)O)cc2)c2ccccc2)c2ccccc2)cc1`, the GI50 (COLO 205) is reported as > 100 µM (inactive), the GI50 (NCI-H460) is reported as > 100 µM (inactive) and the GI50 (TK-10) is reported as > 100 µM (inactive). For the same compound, the GI50 (HCC 2998) was > 100 µM (inactive), the GI50 (SK-MEL-2) was > 100 µM (inactive) and the GI50 (SNB-75) was > 100 µM (inactive). For the same compound, the GI50 (SF-268) was > 100 µM (inactive), the GI50 (SW-620) was > 100 µM (inactive) and the GI50 (OVCAR-8) was > 100 µM (inactive). The GI50 (786-0) was > 100 µM (inactive), the GI50 (UACC-257) was > 100 µM (inactive) and the GI50 (MDA-MB-231) was > 100 µM (inactive). The GI50 (OVCAR-4) was > 100 µM (inactive), the GI50 (PC-3) was > 100 µM (inactive) and the GI50 (HOP-62) was > 100 µM (inactive). The GI50 (IGROV-1) was > 100 µM (inactive), the GI50 (OVCAR-3) was > 100 µM (inactive) and the GI50 (OVCAR-5) was > 100 µM (inactive). The GI50 (NCI-H23) was > 100 µM (inactive), the GI50 (MOLT-4) was > 100 µM (inactive) and the GI50 (BT-549) was 33.5 µM (inactive). The GI50 (Hs-578T) was > 100 µM (inactive), the GI50 (SF-295) was > 100 µM (inactive) and the GI50 (T47D) was > 100 µM (inactive). The GI50 (SK-OV-3) was > 100 µM (inactive), the GI50 (EKVX) was > 100 µM (inactive) and the GI50 (MDA-MB-435) was > 100 µM (inactive). The GI50 (SNB-19) was > 100 µM (inactive), the GI50 (K562) was > 100 µM (inactive) and the GI50 (U-251) was > 100 µM (inactive). For the same compound, the GI50 (HCT-15) was greater than 100 µM, the GI50 (UO-31) was > 100 µM (inactive) and the GI50 (LOX IMVI) was > 100 µM (inactive). For the same compound, the GI50 (MCF7) was > 100 µM (inactive), the GI50 (SN12C) was > 100 µM (inactive) and the GI50 (NCI-H226) was > 100 µM (inactive). For the same compound, the GI50 (HCT-116) was > 100 µM (inactive), the GI50 (A498) was > 100 µM (inactive) and the GI50 (DU-145) was > 100 µM (inactive). For the same compound, the GI50 (RPMI-8226) was > 100 µM (inactive), the GI50 (SR) was > 100 µM (inactive) and the GI50 (ACHN) was > 100 µM (inactive). The GI50 (SK-MEL-28) was > 100 µM (inactive), the GI50 (RXF 393) was > 100 µM (inactive) and the GI50 (MDA-N) was > 100 µM (inactive). The GI50 (KM12) was > 100 µM (inactive), the GI50 (NCI/ADR-RES) was > 100 µM (inactive) and the GI50 (M14) was > 100 µM (inactive). The GI50 (UACC-62) was > 100 µM (inactive) and the GI50 (A549) was > 100 µM (inactive).
